According to paper PMC8942558 (Emerging Microbes & Infections, 2022):
pKd: −log10 of the molar value. Where two headings read alike, the source gives them in different places.

Legend:
YFV replicon = assay type: cell-based, Yellow fever virus
[1] = system: WT-YFV strain FJYF03/2016; set-up: species or system A129^−/− mice; details: mouse, in vivo
YFV NS5 = YFV NS5 (Yellow fever virus, UniProt P03314); assay: biochemical; assay type: binding
YFV-17D^DiD = assay type: cell-based, Yellow fever virus
YFV = assay type: cell-based, Yellow fever virus
YFV-17D [2] = assay type: cell-based, Yellow fever virus
WNV = assay type: cell-based, West Nile virus
West Nile virus (WNV) = assay type: cell-based
YFV-17D [3] = assay type: cell-based, Yellow fever virus; remark: listed apart in the source
YFV-17D [4] = assay type: cell-based, Yellow fever virus; remark: listed apart in the source
YFV-17D [5] = assay type: cell-based, Yellow fever virus; remark: listed apart in the source
[6] = system: WT-YFV strain FJYF03/2016; set-up: species or system C57 mice; details: mouse, in vivo
dengue virus (DENV) = assay type: cell-based
[7] = system: Japanese encephalitis virus (JEV); assay type: cell-based
[8] = system: clathrin-mediated endocytosis; assay type: cell-based, Human
hepatitis C virus (HCV) = assay type: cell-based
Zika virus (ZIKV) = assay type: cell-based
WNV NS5 = WNV NS5 (West Nile virus, UniProt Q9Q6P4); assay: biochemical; assay type: binding
Sequence of WNV NS5 (Q9Q6P4 2529-3433 limits assumed): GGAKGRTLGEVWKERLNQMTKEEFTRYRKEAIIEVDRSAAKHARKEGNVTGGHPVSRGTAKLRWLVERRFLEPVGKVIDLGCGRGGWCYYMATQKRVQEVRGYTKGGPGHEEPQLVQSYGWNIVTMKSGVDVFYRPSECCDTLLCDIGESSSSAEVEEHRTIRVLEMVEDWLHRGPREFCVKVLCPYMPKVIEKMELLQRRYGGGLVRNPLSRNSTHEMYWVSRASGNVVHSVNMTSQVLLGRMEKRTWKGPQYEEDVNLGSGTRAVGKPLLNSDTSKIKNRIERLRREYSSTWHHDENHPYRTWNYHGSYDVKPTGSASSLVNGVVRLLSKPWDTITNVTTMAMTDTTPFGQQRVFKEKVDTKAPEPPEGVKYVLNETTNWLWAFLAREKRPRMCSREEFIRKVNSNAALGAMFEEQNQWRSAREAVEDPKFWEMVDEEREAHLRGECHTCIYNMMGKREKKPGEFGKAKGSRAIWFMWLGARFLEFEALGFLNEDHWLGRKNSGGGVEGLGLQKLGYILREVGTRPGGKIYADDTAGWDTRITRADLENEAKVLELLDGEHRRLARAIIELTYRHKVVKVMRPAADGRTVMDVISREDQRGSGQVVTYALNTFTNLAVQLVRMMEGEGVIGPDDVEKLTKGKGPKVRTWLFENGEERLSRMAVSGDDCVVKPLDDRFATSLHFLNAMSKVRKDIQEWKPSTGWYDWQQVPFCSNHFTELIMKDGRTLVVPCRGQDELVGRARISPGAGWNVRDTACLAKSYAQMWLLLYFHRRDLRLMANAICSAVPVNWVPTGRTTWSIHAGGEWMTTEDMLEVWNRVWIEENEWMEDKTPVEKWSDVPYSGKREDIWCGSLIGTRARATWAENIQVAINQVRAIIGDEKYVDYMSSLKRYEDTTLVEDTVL

Sequence of YFV NS5 (P03314 2507-3411 limits assumed): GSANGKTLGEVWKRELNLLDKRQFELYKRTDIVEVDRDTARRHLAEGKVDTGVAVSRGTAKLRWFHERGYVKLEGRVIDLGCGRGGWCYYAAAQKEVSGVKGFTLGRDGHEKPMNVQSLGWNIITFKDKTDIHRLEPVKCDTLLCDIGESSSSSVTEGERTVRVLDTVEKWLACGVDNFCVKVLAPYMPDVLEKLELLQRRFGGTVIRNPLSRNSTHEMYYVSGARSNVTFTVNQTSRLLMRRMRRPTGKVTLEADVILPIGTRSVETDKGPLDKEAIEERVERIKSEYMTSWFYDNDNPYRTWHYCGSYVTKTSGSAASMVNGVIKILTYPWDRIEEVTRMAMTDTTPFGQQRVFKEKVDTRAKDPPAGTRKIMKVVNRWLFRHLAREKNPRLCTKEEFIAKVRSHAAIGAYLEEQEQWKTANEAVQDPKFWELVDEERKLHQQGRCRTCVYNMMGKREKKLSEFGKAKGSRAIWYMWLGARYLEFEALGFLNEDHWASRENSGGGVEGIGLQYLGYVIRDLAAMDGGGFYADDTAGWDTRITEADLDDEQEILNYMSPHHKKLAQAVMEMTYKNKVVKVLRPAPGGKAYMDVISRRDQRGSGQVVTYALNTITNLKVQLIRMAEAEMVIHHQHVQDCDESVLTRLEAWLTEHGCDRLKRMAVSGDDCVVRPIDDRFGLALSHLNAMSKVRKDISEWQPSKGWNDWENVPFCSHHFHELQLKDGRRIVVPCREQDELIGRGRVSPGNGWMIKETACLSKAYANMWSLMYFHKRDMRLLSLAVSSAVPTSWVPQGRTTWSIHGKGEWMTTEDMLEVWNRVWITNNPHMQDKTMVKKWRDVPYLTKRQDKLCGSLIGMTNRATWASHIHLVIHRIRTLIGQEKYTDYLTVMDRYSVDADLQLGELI

`CC(C)OC(=O)[C@H](C)N[P@](=O)(OC[C@H]1O[C@@H](n2ccc(=O)[nH]c2=O)[C@](C)(F)[C@@H]1O)Oc1ccccc1` [Sofosbuvir] was tested, and the “YFV replication in replicon cells” value (YFV replicon) was “relatively good inhibitory effect”, the survival rate [1] was “slight protective activity in the highest infection-dose group” and the pKd (YFV NS5) was 2.21.

`CO/C1=C\C(C)=C\[C@@H](C)[C@@H](O)[C@@H](C)C/C(C)=C/C=C/[C@H](OC)[C@@H]([C@@H](C)[C@@H](O)[C@H](C)[C@@]2(O)C[C@@H](O)[C@H](C)[C@@H](C(C)C)O2)OC1=O` [bafilomycin A1] was tested, and the “virion-host cell fusion (DiD fluorescence signal)” value (“virion-host cell fusion” below) (YFV-17D^DiD) was “fluorescence signal reduced significantly”.

For `CO[C@H]1/C=C/O[C@@]2(C)Oc3c(C)c(O)c4c(O)c(c(/C=N/N5CCN(C6CCCC6)CC5)c(O)c4c3C2=O)NC(=O)/C(C)=C\C=C\[C@H](C)[C@H](O)[C@@H](C)[C@@H](O)[C@@H](C)[C@H](OC(C)=O)[C@@H]1C` [Rifapentine], the “YFV assembly and release” value (YFV) was “did not influence YFV assembly and release”, the “infectivity of virions incubated with compound” value (YFV-17D [2]) was “no obvious differences in infectivity” and the WNV binding (WNV) was “did not affect WNV binding”. The “inhibitory effect on WNV infection” value (West Nile virus (WNV)) was “slight suppressive activity above 5 μM”, the “effect on YFV infection in kinetic test” value (YFV-17D [3]) was “obstructive effect on YFV infection throughout the entire phase of viral entry and post-entry stages” and the “intracellular YFV RNA level” value (YFV-17D [4]) was “suppressed in a dose-dependent manner”. The “YFV attachment to the cell surface” value (YFV-17D [5]) was “impeded YFV attachment to the cell surface in a dose-dependent manner”, the “virion-host cell fusion” value (YFV-17D^DiD) was “no inhibitory effect” and the “YFV replication in replicon cells” value (YFV replicon) was “robustly abolished YFV replication from 1 to 25 μM”. The “body weight of surviving mice” value [6] was “all recovered to normal levels”, the clinical symptoms [6] was “fewer injury features” and the survival of mice [6] was “significantly improved the survival of mice”. For the same molecule, the survival rate [6] was “approximately 40%”, the “inhibitory effect on DENV infection” value (dengue virus (DENV)) was “no obvious inhibitory effect” and the “inhibitory effect on JEV infection” value [7] was “no obvious inhibitory effect”. The “body weight of survival mice” value [1] was “recovered to almost the normal level”, the clinical signs [1] was “slowed down or reduced the occurrence of clinical signs” and the survival rate [1] was “significantly enhanced the survival rate”. For the same molecule, the “virus titres in kidney” value [1] was “did not recognize distinctive changes”, the “virus titres in liver” value [1] was “did not recognize distinctive changes” and the “virus titres in serum” value [1] was “reduced virus titres significantly”. The “virus titres in spleen” value [1] was “reduced virus titres significantly”, the TF uptake [8] was “No major changes” and the pKd (YFV NS5) was 4.68. The “inhibitory effect on HCV infection” value (hepatitis C virus (HCV)) was “no obvious inhibitory effect”, the “inhibitory effect on ZIKV infection” value (Zika virus (ZIKV)) was “no obvious inhibitory effect” and the pKd (WNV NS5) was 4.26.

For `Cl.N` [NH4Cl], the “virion-host cell fusion” value (YFV-17D^DiD) was “fluorescence signal reduced significantly”.
